The results in this text go back to patent US20230144824A1, “1H-PYRAZOLO[4,3-d]PYRIMIDINE COMPOUNDS AS TOLL-LIKE RECEPTOR 7 (TLR7) AGONISTS” (BRISTOL-MYERS SQUIBB COMPANY, priority 2020, published 2023).

Usually EC50 stands for the midpoint of the concentration-response curve.

The target in one experiment is T1, human TLR7 (Homo sapiens, UniProt Q9NYK1).
T1 construct: host or cells: HEK-Blue TLR7 cells (engineered human embryonic kidney cells)
T1 sequence (Q9NYK1 27-1049): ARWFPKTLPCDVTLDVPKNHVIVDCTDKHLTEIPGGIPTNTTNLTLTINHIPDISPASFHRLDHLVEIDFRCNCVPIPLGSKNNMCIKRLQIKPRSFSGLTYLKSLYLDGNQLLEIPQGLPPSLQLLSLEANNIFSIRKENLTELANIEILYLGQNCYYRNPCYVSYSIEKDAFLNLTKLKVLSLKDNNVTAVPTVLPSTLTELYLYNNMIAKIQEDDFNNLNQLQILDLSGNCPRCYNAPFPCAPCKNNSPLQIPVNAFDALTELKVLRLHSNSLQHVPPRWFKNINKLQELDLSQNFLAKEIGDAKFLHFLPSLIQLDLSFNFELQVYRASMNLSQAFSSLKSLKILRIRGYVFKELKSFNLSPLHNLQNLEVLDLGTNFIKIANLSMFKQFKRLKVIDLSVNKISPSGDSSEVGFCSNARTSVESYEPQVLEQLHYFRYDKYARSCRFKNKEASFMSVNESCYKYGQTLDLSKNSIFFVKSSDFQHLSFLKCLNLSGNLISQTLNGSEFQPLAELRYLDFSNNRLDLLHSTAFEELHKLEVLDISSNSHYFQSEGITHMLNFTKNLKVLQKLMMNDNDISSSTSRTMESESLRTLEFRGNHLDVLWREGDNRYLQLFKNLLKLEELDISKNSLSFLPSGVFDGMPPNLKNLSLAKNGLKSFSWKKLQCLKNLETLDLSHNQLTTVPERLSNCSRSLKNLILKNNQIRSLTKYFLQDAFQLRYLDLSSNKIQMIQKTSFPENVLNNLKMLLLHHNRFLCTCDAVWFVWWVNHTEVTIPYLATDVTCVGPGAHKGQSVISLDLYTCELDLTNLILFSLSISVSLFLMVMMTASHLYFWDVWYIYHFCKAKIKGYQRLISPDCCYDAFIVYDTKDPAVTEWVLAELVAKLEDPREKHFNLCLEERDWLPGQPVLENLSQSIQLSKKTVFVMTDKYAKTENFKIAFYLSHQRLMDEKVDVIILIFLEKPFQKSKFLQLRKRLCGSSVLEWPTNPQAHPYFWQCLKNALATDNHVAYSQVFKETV
Kind of experiment: Human TLR7 agonist activity assay (HEK-Blue TLR7 SEAP reporter). The class given is cell-based. The following applies: HEK-Blue TLR7 cells, 18 h treatment, average where assay performed multiple times, read-out: hTLR7 Agonism EC50. In short, it runs like this:
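HEK-Blue TLR7 cells (15,000/well) treated with compound for 18 h at 37 °C, 5% CO2. Secreted SEAP measured with Quanti-Blue, 30 min, OD 620 nm. EC50 taken as concentration giving half-maximal response between baseline and maximum.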

In another experiment the test system is CD69. Kind of experiment: Induction of CD69 in human whole blood. In kind it is cell-based. The note with it: 100% set to 1 uM of resiquimod, average where assay performed multiple times, read-out: hWB CD69 EC50. In outline:
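Heparinized human whole blood treated with TLR7 agonist at final 1 uM and incubated 17 h at 37° C. CD69 surface staining alongside CD14 and CD19, then fix/lysis and flow cytometry on iQuePlus. Curves fitted with 1 uM resiquimod set as 100%.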

Read-outs that look alike come from different tables or passages of the source.

`CCC[C@@H](CCO)Nc1nc(N)nc2cnn(Cc3ncc(C4CCN(CCO)CC4)cc3OC)c12` [Compound 125, (3S)-3-{[5-amino-1-({5-[1-(2-hydroxyethyl)piperidin-4-yl]-3-methoxypyridin-2-yl}methyl)-1H-pyrazolo[4,3-d]pyrimidin-7-yl]amino}hexan-1-ol]: the EC50 at human TLR7 was determined as 57.8 nM; in the experiment on CD69 (Homo sapiens, 17 h) it was 10.2 nM.
In the same order, the values of `CCCCNc1nc(N)nc2c(Cl)nn(Cc3ncc(C4CCN(C5CCCC5)CC4)cc3OC)c12` [Compound 131, N7-butyl-3-chloro-1-{[5-(1-cyclopentylpiperidin-4-yl)-3-methoxypyridin-2-yl]methyl}-1H-pyrazolo[4,3-d]pyrimidine-5,7-diamine] are 595 nM and 972 nM.
As for `CCC[C@@H](CCO)Nc1nc(N)nc2cnn(Cc3ncc(C4CCN(C5COC5)CC4)cc3OC)c12` [Compound 133, (3S)-3-{[5-amino-1-({3-methoxy-5-[1-(oxetan-3-yl)piperidin-4-yl]pyridin-2-yl}methyl)-1H-pyrazolo[4,3-d]pyrimidin-7-yl]amino}hexan-1-ol], the EC50 on human TLR7 was determined as 7.6 nM; in the experiment with CD69 (Homo sapiens, 17 h), 5.4 nM.
In the case of `CCC[C@@H](CCO)Nc1nc(N)nc2cnn(Cc3ccc(C4CN(C(C)C)CCN4)cc3OC)c12` (stereo partly drawn) [Compound 184, (3S)-3-{[5-amino-1-({2-methoxy-4-[4-(propan-2-yl)piperazin-2-yl]phenyl}methyl)-1H-pyrazolo[4,3-d]pyrimidin-7-yl]amino}hexan-1-ol], the results for the EC50 on human TLR7 and in the experiment on CD69 (17 hrs) were 6.5 nM and 0.15 nM, respectively.
`CCCCNc1nc(N)nc2c(Cl)nn(Cc3ncc(C4CCN(C5CCOCC5)CC4)cc3OC)c12` [Compound 149, N7-butyl-3-chloro-1-({3-methoxy-5-[1-(oxan-4-yl)piperidin-4-yl]pyridin-2-yl}methyl)-1H-pyrazolo[4,3-d]pyrimidine-5,7-diamine]: the concentration for a half-maximal effect (EC50) at human TLR7 turned out to be 869 nM; in the experiment on CD69 (Homo sapiens, 17 h) it was 590 nM.
For the compound `CCC[C@@H](CCO)Nc1nc(N)nc2cnn(Cc3ncc(C4CCN(C5CCOCC5)CC4)cc3OC)c12` [Compound 127, (3S)-3-{[5-amino-1-({3-methoxy-5-[1-(oxan-4-yl)piperidin-4-yl]pyridin-2-yl}methyl)-1H-pyrazolo[4,3-d]pyrimidin-7-yl]amino}hexan-1-ol], the EC50 at human TLR7 was 12.8 nM; in the experiment with CD69 (Homo sapiens, 17 h), 2.7 nM.
With `CCC[C@@H](CCO)Nc1nc(N)nc2cnn(Cc3nc(C4CCN(C(C)C)CC4)ccc3OC)c12` [Compound 190, (3S)-3-{[5-amino-1-({3-methoxy-6-[1-(propan-2-yl)piperidin-4-yl]pyridin-2-yl}methyl)-1H-pyrazolo[4,3-d]pyrimidin-7-yl]amino}hexan-1-ol], the concentration for a half-maximal effect (EC50) came out at 175 nM at human TLR7 and 26.7 nM with CD69 (Homo sapiens, 17 h).
The like results for `CCCCNc1nc(N)nc2cnn(Cc3ncc(C4CCN(CC(=O)N(C)C)CC4)cc3OC)c12` [Compound 120, 2-[4-(6-{[5-amino-7-(butylamino)-1H-pyrazolo[4,3-d]pyrimidin-1-yl]methyl}-5-methoxypyridin-3-yl)piperidin-1-yl]-N,N-dimethylacetamide] were, in that order, 79.1 nM and 2 nM.
`CCCCNc1nc(N)nc2cnn(Cc3cc(F)c(N4CCN(C(=O)CNCC(C)(C)O)CC4)cc3OC)c12` [Compound 196, 1-[4-(4-{[5-amino-7-(butylamino)-1H-pyrazolo[4,3-d]pyrimidin-1-yl]methyl}-2-fluoro-5-methoxyphenyl)piperazin-1-yl]-2-[(2-hydroxy-2-methylpropyl)amino]ethan-1-one]: the EC50 at human TLR7 was found to be 131 nM; with CD69 (Homo sapiens, 17 h), 81 nM.
For `CCC[C@@H](CCO)Nc1nc(N)nc2cnn(Cc3ncc(C4CCN(C(=O)CCN(C)C)CC4)cc3OC)c12` [Compound 136, 1-(4-{6-[(5-amino-7-{[(3S)-1-hydroxyhexan-3-yl]amino}-1H-pyrazolo[4,3-d]pyrimidin-1-yl)methyl]-5-methoxypyridin-3-yl}piperidin-1-yl)-3-(dimethylamino)propan-1-one], the half-maximal effective concentration (EC50) is 197 nM on human TLR7 and 42.3 nM in the experiment with CD69 (Homo sapiens, 17 h).
Take `CCCCNc1nc(N)nc2cnn(Cc3cc(F)c(N4CCNCC4)cc3OC)c12` [Compound 192, N7-butyl-1-{[5-fluoro-2-methoxy-4-(piperazin-1-yl)phenyl]methyl}-1H-pyrazolo[4,3-d]pyrimidine-5,7-diamine]: the EC50 on human TLR7 was found to be 193 nM; in the experiment on CD69 (Homo sapiens, 17 h) it was 58.2 nM.
The like results for `CCCCNc1nc(N)nc2cnn(Cc3ncc(C4CCN(C(=O)CCO)CC4)cc3OC)c12` [Compound 105, 1-[4-(6-{[5-amino-7-(butylamino)-1H-pyrazolo[4,3-d]pyrimidin-1-yl]methyl}-5-methoxypyridin-3-yl)piperidin-1-yl]-3-hydroxypropan-1-one] were, in that order, 817 nM and 159 nM.
The like results for `CCCCNc1nc(N)nc2cnn(Cc3ncc(C4CCNCC4)cc3OC)c12` [Compound 101, N7-butyl-1-{[3-methoxy-5-(piperidin-4-yl)pyridin-2-yl]methyl}-1H-pyrazolo[4,3-d]pyrimidine-5,7-diamine] were, in that order, 56.6 nM and 9.3 nM.
Take `CCCCNc1nc(N)nc2cnn(Cc3ncc(C4CCN(C5CCOCC5)CC4)cc3OC)c12` [Compound 112, N7-butyl-1-({3-methoxy-5-[1-(oxan-4-yl)piperidin-4-yl]pyridin-2-yl}methyl)-1H-pyrazolo[4,3-d]pyrimidine-5,7-diamine]: the concentration giving a half-maximal response (EC50) is 34 nM at human TLR7 and 5.9 nM in the experiment with CD69 (Homo sapiens, 17 h).
Regarding `CCC[C@@H](CCO)Nc1nc(N)nc2cnn(Cc3cnc(C4CCN(CCO)CC4)cc3OC)c12` [Compound 173, (3S)-3-{[5-amino-1-({6-[1-(2-hydroxyethyl)piperidin-4-yl]-4-methoxypyridin-3-yl}methyl)-1H-pyrazolo[4,3-d]pyrimidin-7-yl]amino}hexan-1-ol], the EC50 at human TLR7 was 89.9 nM; in the experiment on CD69 (Homo sapiens, 17 h) it was 4.8 nM.
In the same order, the values of `CCCCNc1nc(N)nc2c(C)nn(Cc3ncc(C4CCN(C5CCOCC5)CC4)cc3OC)c12` [Compound 121, N7-butyl-1-({3-methoxy-5-[1-(oxan-4-yl)piperidin-4-yl]pyridin-2-yl}methyl)-3-methyl-1H-pyrazolo[4,3-d]pyrimidine-5,7-diamine] are 602 nM and 122 nM.
For `CCC[C@@H](CCO)Nc1nc(N)nc2cnn(Cc3ncc(N4CCNCC4)cc3OC)c12` [Compound 171, (3S)-3-[(5-amino-1-{[3-methoxy-5-(piperazin-1-yl)pyridin-2-yl]methyl}-1H-pyrazolo[4,3-d]pyrimidin-7-yl)amino]hexan-1-ol], the EC50 at human TLR7 turned out to be 309 nM; in the experiment on CD69 (Homo sapiens, 17 h) it was 55.5 nM.
The like results for `CCCCNc1nc(N)nc2cnn(Cc3ncc(C4CCN(CCO)CC4)cc3OC)c12` [Compound 114, 2-[4-(6-{[5-amino-7-(butylamino)-1H-pyrazolo[4,3-d]pyrimidin-1-yl]methyl}-5-methoxypyridin-3-yl)piperidin-1-yl]ethan-1-ol] were, in that order, 49.9 nM and 3.6 nM.
As to `CCCCNc1nc(N)nc2cnn(Cc3cc(F)c(N4CCN(C(=O)CNCCS(C)(=O)=O)CC4)cc3OC)c12` [Compound 197, 1-[4-(4-{[5-amino-7-(butylamino)-1H-pyrazolo[4,3-d]pyrimidin-1-yl]methyl}-2-fluoro-5-methoxyphenyl)piperazin-1-yl]-2-[(2-methanesulfonylethyl)amino]ethan-1-one], the EC50 amounted to 320 nM at human TLR7 and 1000 nM in the experiment with CD69 (Homo sapiens, 17 h).
For `CCC[C@@H](CCO)Nc1nc(N)nc2cnn(Cc3ccc(C4CCCN4)cc3OC)c12` (stereo partly drawn) [Compound 175, (3S)-3-[(5-amino-1-{[2-methoxy-4-(pyrrolidin-2-yl)phenyl]methyl}-1H-pyrazolo[4,3-d]pyrimidin-7-yl)amino]hexan-1-ol], the EC50 was 8.8 nM on human TLR7 and 0.91 nM with CD69 (Homo sapiens, 17 h).
